First: COc1cc(/C=C/c2cc(/C=C/c3ccc4cc[nH]c4c3)[nH]n2)cc(OCc2ccccn2)c1 [Example 25, 3-[(1E)-2-(1H-indol-6-yl)ethenyl]-5-[(1E)-2-[3-methoxy-5-(2-pyridylmethoxy)phenyl]ethenyl]-1H-pyrazole]
Second: COc1cc(OCc2ccccn2)ccc1/C=C/c1cc(/C=C/c2ccc3[nH]ccc3c2)[nH]n1 [Example 40, 3-[(1E)-2-(1H-indol-5-yl)ethenyl]-5-[(1E)-2-[2-methoxy-4-(2-pyridylmethoxy)phenyl]ethenyl]-1H-pyrazole]
The melting point of the first is lower: 88 to 93 °C for the first, 98 to 104 °C for the second.

First: COc1cc(OCCN2CCCCC2)ccc1/C=C/c1cc(/C=C/c2ccc3cc[nH]c3c2)[nH]n1 [Example 26, 3-[(1E)-2-(1H-indol-6-yl)ethenyl]-5-[(1E)-2-[2-methoxy-4-(2-piperidinoethoxy)phenyl]ethenyl]-1H-pyrazole]
Second: COc1cc(OCCN2CCN(C)CC2)ccc1/C=C/c1cc(/C=C/c2ccc3cc[nH]c3c2)[nH]n1 [Example 28, 3-[(1E)-2-(1H-indol-6-yl)ethenyl]-5-[(1E)-2-[2-methoxy-4-[2-(4-methylpiperazino)ethoxy]phenyl]ethenyl]-1H-pyrazole]
The melting point of the first is higher: 150 to 155 °C for the first, 134 to 142 °C for the second.

First: COc1cc(O[C@@H]2O[C@H](CO)[C@@H](O)[C@H](O)[C@H]2O)ccc1/C=C/c1cc(/C=C/c2ccc3cc[nH]c3c2)[nH]n1 [Example 29, 3-[(1E)-2-(1H-indol-6-yl)ethenyl]-5-[(1E)-2-[4-[(β-D-glucopyranosyl)oxy]-2-methoxyphenyl]ethenyl]-1H-pyrazole]
Second: COc1cc(OCc2cccnc2)ccc1/C=C/c1cc(/C=C/c2ccc3cc[nH]c3c2)[nH]n1 [Example 46, 3-[(1E)-2-(1H-indol-6-yl)ethenyl]-5-[(1E)-2-[2-methoxy-4-(3-pyridylmethoxy)phenyl]ethenyl]-1H-pyrazole]
The melting point of the first is higher: 194 to 199 °C for the first, 90 to 95 °C for the second.

First: COc1cc(OCc2ccccn2)ccc1/C=C/c1cc(/C=C/c2ccc3[nH]nnc3c2)[nH]n1 [Example 30, 3-[(1E)-2-(1H-benzotriazol-5-yl)ethenyl]-5-[(1E)-2-[2-methoxy-4-(2-pyridylmethoxy)phenyl]ethenyl]-1H-pyrazole]
Second: COc1cc(OCc2ccccn2)ccc1/C=C/c1cc(/C=C/c2ccc3nccnc3c2)[nH]n1 [Example 32, 3-[(1E)-2-[2-methoxy-4-(2-pyridylmethoxy)phenyl]ethenyl]-5-[(1E)-2-(quinoxalin-6-yl)ethenyl]-1H-pyrazole]
The melting point of the first is lower: 113 to 120 °C for the first, 205 to 213 °C for the second.

First: COc1cc(OCc2ccccn2)ccc1/C=C/c1cc(/C=C/c2cc3ccccc3o2)[nH]n1 [Example 33, 3-[(1E)-2-(benzofuran-2-yl)ethenyl]-5-[(1E)-2-[2-methoxy-4-(2-pyridylmethoxy)phenyl]ethenyl]-1H-pyrazole]
Second: COc1cc(OCc2ccccn2)ccc1/C=C/c1cc(/C=C/c2cc3ccccc3s2)[nH]n1 [Example 34, 3-[(1E)-2-(benzothiophen-2-yl)ethenyl]-5-[(1E)-2-[2-methoxy-4-(2-pyridylmethoxy)phenyl]ethenyl]-1H-pyrazole]
The melting point of the first is lower: 199.4 to 200.9 °C for the first, 231.1 to 232.1 °C for the second.

`COc1cc(OCc2ccccn2)ccc1/C=C/c1cc(/C=C/c2c[nH]c3ccccc23)[nH]n1` [Example 38, 3-[(1E)-2-(1H-indol-3-yl)ethenyl]-5-[(1E)-2-[2-methoxy-4-(2-pyridylmethoxy)phenyl]ethenyl]-1H-pyrazole] and `COc1cc(OCc2ccccn2)ccc1/C=C/c1cc(/C=C/c2cccc3[nH]ccc23)[nH]n1` [Example 39, 3-[(1E)-2-(1H-indol-4-yl)ethenyl]-5-[(1E)-2-[2-methoxy-4-(2-pyridylmethoxy)phenyl]ethenyl]-1H-pyrazole] cannot be ordered by melting point: 112 to 116 °C for the first, 108 to 113 °C for the second.

Compared with `COc1cc(OCc2ccccn2)ccc1/C=C/c1cc(/C=C/c2cccc3cc[nH]c23)[nH]n1` [Example 41, 3-[(1E)-2-(1H-indol-7-yl)ethenyl]-5-[(1E)-2-[2-methoxy-4-(2-pyridylmethoxy)phenyl]ethenyl]-1H-pyrazole], `COc1cc(OCc2cccnc2)ccc1/C=C/c1cc(/C=C/c2cccc3cc[nH]c23)[nH]n1` [Example 50, 3-[(1E)-2-(1H-indol-7-yl)ethenyl]-5-[(1E)-2-[2-methoxy-4-(3-pyridylmethoxy)phenyl]ethenyl]-1H-pyrazole] is higher in melting point: 99 to 110 °C for the first, 122 to 129 °C for the second.

`COc1cc(OCc2cccnc2)ccc1/C=C/c1cc(/C=C/c2c[nH]c3ccccc23)[nH]n1` [Example 42, 3-[(1E)-2-(1H-indol-3-yl)ethenyl]-5-[(1E)-2-[2-methoxy-4-(3-pyridylmethoxy)phenyl]ethenyl]-1H-pyrazole] and `COc1cc(OCc2ccncc2)ccc1/C=C/c1cc(/C=C/c2c[nH]c3ccccc23)[nH]n1` [Example 43, 3-[(1E)-2-(1H-indol-3-yl)ethenyl]-5-[(1E)-2-[2-methoxy-4-(4-pyridylmethoxy)phenyl]ethenyl]-1H-pyrazole] cannot be ordered by melting point: 129 to 137 °C for the first, 128 to 139 °C for the second.

`COc1cc(OCc2cccnc2)ccc1/C=C/c1cc(/C=C/c2ccc3[nH]ccc3c2)[nH]n1` [Example 44, 3-[(1E)-2-(1H-indol-5-yl)ethenyl]-5-[(1E)-2-[2-methoxy-4-(3-pyridylmethoxy)phenyl]ethenyl]-1H-pyrazole] and `COc1cc(OCc2ccncc2)ccc1/C=C/c1cc(/C=C/c2ccc3[nH]ccc3c2)[nH]n1` [Example 45, 3-[(1E)-2-(1H-indol-5-yl)ethenyl]-5-[(1E)-2-[2-methoxy-4-(4-pyridylmethoxy)phenyl]ethenyl]-1H-pyrazole] cannot be ordered by melting point: 127 to 135 °C for the first, 133 to 141 °C for the second.

Compared with `COc1cc(OCc2ccncc2)ccc1/C=C/c1cc(/C=C/c2ccc3cc[nH]c3c2)[nH]n1` [Example 47, 3-[(1E)-2-(1H-indol-6-yl)ethenyl]-5-[(1E)-2-[2-methoxy-4-(4-pyridylmethoxy)phenyl]ethenyl]-1H-pyrazole], `COc1cc(OCc2ccncc2)ccc1/C=C/c1cc(/C=C/c2cccc3[nH]ccc23)[nH]n1` [Example 49, 3-[(1E)-2-(1H-indol-4-yl)ethenyl]-5-[(1E)-2-[2-methoxy-4-(4-pyridylmethoxy)phenyl]ethenyl]-1H-pyrazole] is higher in melting point: 103 to 118 °C for the first, 207 to 215 °C for the second.

First: COc1cc(OCc2cccnc2)ccc1/C=C/c1cc(/C=C/c2cccc3[nH]ccc23)[nH]n1 [Example 48, 3-[(1E)-2-(1H-indol-4-yl)ethenyl]-5-[(1E)-2-[2-methoxy-4-(3-pyridylmethoxy)phenyl]ethenyl]-1H-pyrazole]
Second: COc1cc(OCc2cccnc2)ccc1/C=C/c1cc(/C=C/c2cc3ccccc3[nH]2)[nH]n1 [Example 52, 3-[(1E)-2-(1H-indol-2-yl)ethenyl]-5-[(1E)-2-[2-methoxy-4-(3-pyridylmethoxy)phenyl]ethenyl]-1H-pyrazole]
The melting point of the first is lower: 109 to 114 °C for the first, 126 to 138 °C for the second.

First: COc1cc(OCc2ccncc2)ccc1/C=C/c1cc(/C=C/c2cccc3cc[nH]c23)[nH]n1 [Example 51, 3-[(1E)-2-(1H-indol-7-yl)ethenyl]-5-[(1E)-2-[2-methoxy-4-(4-pyridylmethoxy)phenyl]ethenyl]-1H-pyrazole]
Second: COc1cc(OCc2ccncc2)ccc1/C=C/c1cc(/C=C/c2cc3ccccc3[nH]2)[nH]n1 [Example 53, 3-[(1E)-2-(1H-indol-2-yl)ethenyl]-5-[(1E)-2-[2-methoxy-4-(4-pyridylmethoxy)phenyl]ethenyl]-1H-pyrazole]
The melting point of the first is higher: 201 to 206 °C for the first, 124 to 134 °C for the second.

Source: patent US9399635B2, “Pyrazole derivative” (GREEN TECH CO., LTD., priority 2011, dated 2016)
